According to publication PMC10340768, “New Hydrolyzable Tannin with Potent Antioxidant and α-Glucosidase Inhibitory Activity from Black Tea Produced from Camellia taliensis” (Foods, 2023):

Experiments:
[1] = ABTS+ radical scavenging assay; conditions: for IC50: half-maximal inhibitory concentration to ABTS+ radical, means ± SD (n = 3); for ABTS+ Inhibition Ratio (%): at a concentration of 500 μM;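 as to all read-outs here: ABTS+ radical solution incubated with compound in EtOH in 96-well plates for 6–8 min in the dark at room temperature, versus blank control, trolox as reference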
Procedure: (§1) The DPPH assay was conducted as follows: the tested compound (final concentration: 0.2–1000 μM in EtOH, 100 μL) and DPPH solution (200 μM in EtOH, 100 μL) were sequentially added to 96-well plates at room temperature, then hid from the light for 15 min. The blank control and positive control (ascorbic acid) were set simultaneously. OD values at 517 nm were detected with a microplate reader. ABTS^+ assay was carried out as follows: firstly, the ABTS^+ solution was prepared using the procedure in our previous paper [19]. Then, the tested compound (final concentration: 0.2–1000 μM in EtOH, 10 μL) and ABTS^+ solution (200 μL) were added to 96-well plates at room temperature in an orderly manner, and then hided from light for 6–8 min. The blank control and positive control (trolox) were set synchronously. OD values at 405 nm were then detected with a microplate reader. All the reactions were set up three replicates.

[2] = DPPH radical scavenging assay; conditions: for IC50: half-maximal inhibitory concentration to DPPH radical, means ± SD (n = 3); for DPPH Inhibition Ratio (%): at a concentration of 500 μM;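 as to all read-outs here: compounds in EtOH mixed 1:1 with 200 µM DPPH in EtOH in 96-well plates, kept dark 15 min at room temperature, with blank control and ascorbic acid as reference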
Procedure: as §1

[3] = biological target: α-glucosidase; assay: α-Glucosidase inhibitory activity (PNPG substrate); assay type: biochemical; conditions: means ± SD (n = 3)
Procedure: Initially, 96-well plates with the following ingredients were added in a proper order: testing compound (50 μM), α-glucosidase solution (0.025 U/mL), buffer, and the zymolyte (1 mM), and kept at 37 °C for 50 min. […] All the reactions were set up with three replicates. OD values at 405 nm were recorded with a microplate reader.

Row | Molecule | IC50 [1] [µM] | IC50 [2] [µM] | IC50 [3] [µM] | ABTS+ Inhibition Ratio (%) [1] [%] | DPPH Inhibition Ratio (%) [2] [%]
1 | 1-(3′,4′-dihydroxycinnamoyl) cyclopentane-2,3-diol [Compound 30] | 307 ± 3.3 | 548 ± 61.5 | – | – | –
2 | O=C1O[C@H]([C@@H](O)CO)C(O)=C1O [Ascorbic acid, ascorbic acid, reference compound] | – | 1200 ± 87.7 | – | – | –
3 | O=C(O[C@@H]1O[C@@H]2COC(=O)c3cc(O)c(O)c4oc5c(O)c(O)cc(c5c34)C(=O)O[C@H]2[C@H](O)[C@H]1O)c1cc(O)c(O)c(O)c1 [Compound 1, 1-O-galloyl-4,6-tetrahydroxydibenzofurandicarboxyl-β-D-glucopyranose] | 111 ± 2.1 | 339 ± 24.7 | 1.77 ± 0.05 | – | –
4 | O=C(O)/C=C\c1ccc(O[C@@H]2O[C@H](COC(=O)c3cc(O)c(O)c(O)c3)[C@@H](O)[C@H](O)[C@H]2O)cc1 [Compound 2, 4-O-(6′-O-galloyl-β-D-glucopyranosyl)-cis-p-coumaric acid] | 400 ± 9.6 | 502 ± 14 | – | – | –
5 | O=C(O[C@H]1C(O)O[C@@H]2COC(=O)c3cc(O)c(O)c(O)c3-c3c(cc(O)c(O)c3O)C(=O)O[C@H]2[C@@H]1O)c1cc(O)c(O)c(O)c1 (stereo partly drawn) [Compound 3, 2-O-galloyl-4,6-O-(S)-hexahydroxydiphenoyl-β-D-glucopyranose] | 106 ± 0.5 | 941 ± 191 | 1.74 ± 0.03 | – | –
6 | O=C(O[C@@H]1O[C@@H]2COC(=O)c3cc(O)c(O)c(O)c3-c3c(cc(O)c(O)c3O)C(=O)O[C@H]2[C@H](O)[C@H]1O)c1cc(O)c(O)c(O)c1 [Compound 4, 1-O-galloyl-4,6-O-(S)-hexahydroxydiphenoyl-β-D-glucopyranose] | 84.8 ± 0.4 | 312 ± 10.8 | 1.96 ± 0.06 | – | –
7 | O=C(O[C@@H]1O[C@@H]2COC(=O)c3cc(O)c(O)c(O)c3-c3c(cc(O)c(O)c3O)C(=O)O[C@H]2[C@H](O)[C@H]1OC(=O)c1cc(O)c(O)c(O)c1)c1cc(O)c(O)c(O)c1 [Compound 5, 1,2-di-O-galloyl-4,6-O-(S)-hexahydroxydiphenoyl-β-D-glucopyranose] | 75.6 ± 2.1 | 301 ± 79.6 | 0.67 ± 0.04 | – | –
8 | O=C(OC[C@H]1O[C@@H](OC(=O)c2cc(O)c(O)c(O)c2)[C@H](O)[C@@H](O)[C@@H]1O)c1cc(O)c(O)c(O)c1 [Compound 6, 1,6-di-O-galloyl-β-D-glucopyranose] | 99.7 ± 1.4 | 217 ± 27.4 | – | – | –
9 | O=C(OC[C@H]1O[C@@H](OC(=O)c2cc(O)c(O)c(O)c2)[C@H](OC(=O)c2cc(O)c(O)c(O)c2)[C@@H](O)[C@@H]1O)c1cc(O)c(O)c(O)c1 [Compound 7, 1,2,6-tri-O-galloy-β-D-glucopyranose] | 128.4 ± 0.9 | 532 ± 38 | 1.96 ± 0.05 | – | –
10 | O=C(OC[C@H]1O[C@@H](OC(=O)c2cc(O)c(O)c(O)c2)[C@H](O)[C@@H](O)[C@@H]1OC(=O)c1cc(O)c(O)c(O)c1)c1cc(O)c(O)c(O)c1 [Compound 8, 1,4,6-tri-O-galloyl-β-D-glucopyranose] | 77.2 ± 0.7 | 156 ± 26.1 | 2.01 ± 0.02 | – | –
11 | O=c1c(O[C@@H]2O[C@H](CO)[C@@H](O)[C@H](O)[C@H]2O)c(-c2ccc(O)cc2)oc2cc(O)cc(O)c12 [Compound 9, kaempferol 3-O-β-D-glucopyranoside] | – | – | – | 0.19 | 0.97
12 | O=C(/C=C/c1ccc(O)cc1)OC[C@H]1O[C@@H](Oc2c(-c3ccc(O)cc3)oc3cc(O)cc(O)c3c2=O)[C@H](O)[C@@H](O)[C@@H]1O [Compound 10, kaempferol 3-O-(6″-trans-p-coumaroyl)-β-D-glucopyranoside] | – | – | – | 11.55 | 6.28
13 | O=c1c(O[C@@H]2O[C@H](CO)[C@@H](O)[C@H](O)[C@H]2O)c(-c2ccc(O)c(O)c2)oc2cc(O)cc(O)c12 [Compound 11, quercetin 3-O-β-D-glucopyranoside] | 322.8 ± 0.6 | – | – | – | –
14 | C[C@@H]1O[C@@H](OC[C@H]2O[C@@H](Oc3c(-c4ccc(O)cc4)oc4cc(O)cc(O)c4c3=O)[C@H](O)[C@@H](O)[C@@H]2O)[C@H](O)[C@H](O)[C@H]1O [Compound 12, kaempferol 3-O-rutinoside] | – | – | – | 4.24 | 8.58
15 | C[C@@H]1O[C@@H](OC[C@H]2O[C@@H](Oc3c(-c4ccc(O)c(O)c4)oc4cc(O)cc(O)c4c3=O)[C@H](O)[C@@H](O)[C@@H]2O)[C@H](O)[C@H](O)[C@H]1O [Compound 13, rutin] | 266 ± 5.4 | 900 ± 63.4 | – | – | –
16 | O=c1c(O[C@@H]2O[C@H](CO)[C@H](O)[C@H](O)[C@H]2O)c(-c2ccc(O)cc2)oc2cc(O)cc(O)c12 [Compound 14, kaempferol 3-O-β-D-galactopyranoside] | – | – | – | 4.03 | −0.94

Row | Molecule | IC50 [1] [µM] | IC50 [2] [µM] | IC50 [3] [µM] | ABTS+ Inhibition Ratio (%) [1] [%] | DPPH Inhibition Ratio (%) [2] [%]
17 | C[C@@H]1O[C@@H](Oc2c(-c3ccc(O)cc3)oc3cc(O)cc(O)c3c2=O)[C@H](O)[C@H](O)[C@H]1O [Compound 15, kaempferol 3-O-α-L-rhamnopyranoside] | – | – | – | 8.00 | 1.04
18 | O=c1c(O)c(-c2ccc(O)c(O)c2)oc2cc(O)cc(O)c12 [Compound 16, quercetin] | 206 ± 2.6 | 1140 ± 207 | – | – | –
19 | C[C@@H]1O[C@@H](Oc2c(-c3ccc(O)c(O)c3)oc3cc(O)cc(O)c3c2=O)[C@H](O[C@@H]2O[C@H](CO)[C@@H](O)[C@H](O)[C@H]2O)[C@H](O)[C@H]1O [Compound 17, quercetin 3-(2″-β-D-glucosyl)-α-L-rhamnopyranoside] | 480.9 ± 4.1 | 2620 ± 500 | – | – | –
20 | C[C@@H]1O[C@@H](Oc2c(-c3ccc(O)cc3)oc3cc(O)cc(O)c3c2=O)[C@H](O[C@@H]2O[C@H](CO)[C@@H](O)[C@H](O)[C@H]2O)[C@H](O)[C@H]1O [Compound 18, kaempferol 3-(2″-β-D-glucosyl)-α-L-rhamnopyranoside] | – | – | – | 5.89 | 1.08
21 | O=C(O)c1cc(O)c(O)c(O)c1 [Compound 19, gallic acid] | 202 ± 3.4 | 237 ± 22.6 | – | – | –
22 | O=C(O)c1ccc(O)c(O)c1 [Compound 20, 3,4-dihydroxybenzoic acid] | 462 ± 9.3 | 2120 ± 336 | – | – | –
23 | O=C(O)c1ccc(O)cc1 [Compound 21, p-hydroxybenzoic acid] | – | – | – | 3.21 | 3.32
24 | O=C(O)c1cccc(O)c1 [Compound 22, m-hydroxybenzoic acid] | – | – | – | 7.00 | 7.58
25 | COC(=O)c1cc(O)c(O)c(O)c1 [Compound 23, methyl gallate] | 187 ± 2.7 | 299 ± 32.3 | – | – | –
26 | O=C(C=Cc1ccc(O)cc1)OC1CC(O)(C(=O)O)CC(O)C1O (centres unmarked) [Compound 26, 5-O-(E)-p-coumaroylquinic acid] | – | – | – | 6.82 | 6.92
27 | O=C(/C=C/c1ccc(O)c(O)c1)O[C@@H]1CC(C(=O)O)=C[C@@H](O)[C@H]1O [Compound 27, 5-O-caffeoylshikimic acid] | 545 ± 12.8 | 722 ± 43.2 | – | – | –
28 | O=C(O)/C=C/c1ccc(O)c(O)c1 [Compound 28, caffeic acid] | 199 ± 4.1 | 479 ± 33.8 | – | – | –
29 | O=C(O)/C=C/c1ccc(O)cc1 [Compound 29, E-p-hydroxycinnamic acid] | – | – | – | 8.12 | 1.55
30 | O=C1O[C@@H](c2ccc(O)cc2)Cc2cc(O)cc(O)c21 [Compound 32, (3R)-thunberginol C] | 560.3 ± 3.3 | 3940 ± 825 | – | – | –
31 | Cc1c(C)c2c(c(C)c1O)CCC(C)(C(=O)O)O2 (centres unmarked) [Trolox, trolox, reference compound] | 405 ± 6.2 | – | – | – | –
